Test results reported in ChEMBL document CHEMBL1201862, “PubChem BioAssay data set” (2004).
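Growth conditions: 96-well plates. Treatment: test compound, 48 hours, 5 concentrations. Analysis: linear interpolation between bracketing concentrations; unreached endpoints set to highest concentration. The concentration for 50% growth inhibition is given as GI50.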 The source made the active and inactive calls. Rule as the data show it: active = GI50 up to about 1.1 µM and inactive = higher.

Experiments:
Assay in all cases: inhibition of tumour cell growth, NCI panel, 48 h
EKVX = test system: EKVX
HCT-116 = test system: HCT-116
HCT-15 = test system: HCT-15
HOP-62 = test system: HOP-62
K562 = test system: K562
LOX IMVI = test system: LOX IMVI
MDA-N = test system: MDA-N
MOLT-4 = test system: MOLT-4
Malme-3M = test system: Malme-3M
OVCAR-3 = test system: OVCAR-3
OVCAR-5 = test system: OVCAR-5
SF-295 = test system: SF-295
SN12C = test system: SN12C
SW-620 = test system: SW-620
COLO 205 = test system: COLO 205
HCC 2998 = test system: HCC 2998
MDA-MB-231 = test system: MDA-MB-231
NCI-H460 = test system: NCI-H460
PC-3 = test system: PC-3
SK-MEL-5 = test system: SK-MEL-5

SMILES	GI50 (EKVX)	GI50 (HCT-116)	GI50 (HCT-15)	GI50 (HOP-62)	GI50 (K562)	GI50 (LOX IMVI)	GI50 (MDA-N)	GI50 (MOLT-4)	GI50 (Malme-3M)	GI50 (OVCAR-3)	GI50 (OVCAR-5)	GI50 (SF-295)	GI50 (SN12C)	GI50 (SW-620)	GI50 (COLO 205)	GI50 (HCC 2998)	GI50 (MDA-MB-231)	GI50 (NCI-H460)	GI50 (PC-3)	GI50 (SK-MEL-5)
Cc1cnoc1NS(=O)(=O)c1ccc(Nc2nnc(/C=C/c3c(O)ccc4ccccc34)c(=O)n2N)cc1	35.9 µM (inactive)	22 µM (inactive)	6.37 µM	46 µM (inactive)	24.2 µM (inactive)	19.1 µM (inactive)	25.4 µM (inactive)	0.658 µM (active)	24 µM (inactive)	17.3 µM (inactive)	40.1 µM (inactive)	64 µM (inactive)	29.4 µM (inactive)	32.7 µM (inactive)	–	–	–	–	–	–
O=[N+]([O-])/C(C(Cl)=C(Cl)Cl)=C1\NCCS1	> 100 µM (inactive)	43.3 µM (inactive)	35.6 µM	> 100 µM (inactive)	18.8 µM (inactive)	20.1 µM (inactive)	–	21.9 µM (inactive)	19.7 µM (inactive)	33.3 µM (inactive)	> 100 µM (inactive)	> 100 µM (inactive)	36.5 µM (inactive)	56 µM (inactive)	40.1 µM (inactive)	34.4 µM (inactive)	38.8 µM (inactive)	83.9 µM (inactive)	35.6 µM (inactive)	> 100 µM (inactive)
C[N+]1(CCN=C=NC2CCCCC2)CCOCC1	> 100 µM (inactive)	> 100 µM (inactive)	> 100 µM	> 100 µM (inactive)	> 100 µM (inactive)	> 100 µM (inactive)	–	> 100 µM (inactive)	> 100 µM (inactive)	> 100 µM (inactive)	> 100 µM (inactive)	> 100 µM (inactive)	22.9 µM (inactive)	> 100 µM (inactive)	> 100 µM (inactive)	–	> 100 µM (inactive)	> 100 µM (inactive)	> 100 µM (inactive)	> 100 µM (inactive)
O=C(C#Cc1ccccc1)C1=Cc2ccccc2OC1	2.09 µM (inactive)	1.92 µM (inactive)	2.37 µM	13.6 µM (inactive)	2.61 µM (inactive)	0.783 µM (active)	–	3.33 µM (inactive)	4.2 µM (inactive)	2.35 µM (inactive)	2.99 µM (inactive)	20.7 µM (inactive)	3.85 µM (inactive)	2.22 µM (inactive)	1.92 µM (inactive)	7.38 µM (inactive)	3.21 µM (inactive)	4.83 µM (inactive)	4.34 µM (inactive)	2.08 µM (inactive)
O=c1ssc(Cl)c1Nc1c(Cl)ssc1=O	20.6 µM (inactive)	17.5 µM (inactive)	18.6 µM	20.7 µM (inactive)	6.44 µM (inactive)	14.8 µM (inactive)	–	2.25 µM (inactive)	17.9 µM (inactive)	20.5 µM (inactive)	19.4 µM (inactive)	41.4 µM (inactive)	19.5 µM (inactive)	15.8 µM (inactive)	11.3 µM (inactive)	22.3 µM (inactive)	22.3 µM (inactive)	18.8 µM (inactive)	18.9 µM (inactive)	17 µM (inactive)
CC(=O)O[C@H]1C(=O)[C@@]2(C)[C@H]([C@H](OC(=O)c3ccoc3)[C@]3(O)C[C@H](OC(=O)[C@H](O)[C@@H](NC(=O)c4ccccc4)c4ccccc4)C(C)=C1C3(C)C)[C@]1(OC(C)=O)CO[C@@H]1C[C@@H]2O	> 9.59 µM (inactive)	0.0186 µM (active)	4.24 µM	0.206 µM (active)	0.0324 µM (active)	0.032 µM (active)	–	0.045 µM (active)	0.0316 µM (active)	0.0296 µM (active)	0.0953 µM (active)	0.582 µM (active)	–	0.0448 µM (active)	0.0515 µM (active)	0.116 µM (active)	3.05 µM (inactive)	0.0524 µM (active)	0.053 µM (active)	0.0467 µM (active)
CC1(C)C2CCC(N)(C2)C1O (stereo not drawn)	> 100 µM (inactive)	> 100 µM (inactive)	> 100 µM	> 100 µM (inactive)	> 100 µM (inactive)	> 100 µM (inactive)	> 100 µM (inactive)	> 100 µM (inactive)	–	> 100 µM (inactive)	> 100 µM (inactive)	> 100 µM (inactive)	> 100 µM (inactive)	> 100 µM (inactive)	> 100 µM (inactive)	> 100 µM (inactive)	–	> 100 µM (inactive)	> 100 µM (inactive)	> 100 µM (inactive)
COC(=O)NC1(NC(=O)OC)NC(=O)c2cc(OC)c(OC)cc2N1	89.3 µM (inactive)	29.8 µM (inactive)	13.2 µM	3.14 µM (inactive)	34.2 µM (inactive)	62.1 µM (inactive)	3.83 µM (inactive)	–	–	21.2 µM (inactive)	> 100 µM (inactive)	23.6 µM (inactive)	> 100 µM (inactive)	42.6 µM (inactive)	20.2 µM (inactive)	–	–	30.7 µM (inactive)	26.1 µM (inactive)	32.3 µM (inactive)
COc1ccc2nc(-c3ccc(N)cc3)sc2c1	32.1 µM (inactive)	> 100 µM (inactive)	50.5 µM	42.2 µM (inactive)	> 100 µM (inactive)	–	–	13.6 µM (inactive)	> 100 µM (inactive)	> 100 µM (inactive)	> 100 µM (inactive)	43.1 µM (inactive)	–	> 100 µM (inactive)	> 100 µM (inactive)	42 µM (inactive)	81.8 µM (inactive)	54 µM (inactive)	48 µM (inactive)	61.4 µM (inactive)
O=C(/C=C/c1ccccc1)CC(=O)CCC(=O)Nc1ccc(Cl)cc1	> 100 µM (inactive)	37.8 µM (inactive)	> 100 µM	29.6 µM (inactive)	5.58 µM (inactive)	39.2 µM (inactive)	–	> 100 µM (inactive)	> 100 µM (inactive)	> 100 µM (inactive)	> 100 µM (inactive)	> 100 µM (inactive)	> 100 µM (inactive)	> 100 µM (inactive)	> 100 µM (inactive)	80.7 µM (inactive)	–	55.6 µM (inactive)	–	> 100 µM (inactive)
Cc1ccc(N/C(=C(/C(Cl)=C(Cl)Cl)[N+](=O)[O-])n2nnc3ccccc32)cc1	19.1 µM (inactive)	30 µM (inactive)	24.3 µM	18.2 µM (inactive)	23.6 µM (inactive)	–	18.9 µM (inactive)	9.64 µM (inactive)	16.1 µM (inactive)	16.7 µM (inactive)	20.1 µM (inactive)	20.1 µM (inactive)	20.4 µM (inactive)	20.7 µM (inactive)	15.1 µM (inactive)	18.7 µM (inactive)	–	18 µM (inactive)	17.5 µM (inactive)	–
N#CC12C3C4CC5C6C4C1C6C(O)(C53)N2Cc1ccccc1 (stereo not drawn)	> 100 µM (inactive)	> 100 µM (inactive)	> 100 µM	> 100 µM (inactive)	> 100 µM (inactive)	> 100 µM (inactive)	–	> 100 µM (inactive)	> 100 µM (inactive)	> 100 µM (inactive)	> 100 µM (inactive)	> 100 µM (inactive)	> 100 µM (inactive)	> 100 µM (inactive)	> 100 µM (inactive)	> 100 µM (inactive)	–	> 100 µM (inactive)	–	> 100 µM (inactive)
CCC(C)(O)c1cn(-c2ccc(S(=O)(=O)O)cc2)nn1 (stereo not drawn)	> 100 µM (inactive)	> 100 µM (inactive)	> 100 µM	> 100 µM (inactive)	> 100 µM (inactive)	> 100 µM (inactive)	–	> 100 µM (inactive)	> 100 µM (inactive)	> 100 µM (inactive)	> 100 µM (inactive)	> 100 µM (inactive)	> 100 µM (inactive)	> 100 µM (inactive)	> 100 µM (inactive)	> 100 µM (inactive)	–	> 100 µM (inactive)	–	> 100 µM (inactive)
O=c1oc2ccccc2n1CCCn1c(=O)oc2ccccc21	> 100 µM (inactive)	> 100 µM (inactive)	> 100 µM	> 100 µM (inactive)	> 100 µM (inactive)	> 100 µM (inactive)	–	> 100 µM (inactive)	> 100 µM (inactive)	> 100 µM (inactive)	> 100 µM (inactive)	> 100 µM (inactive)	> 100 µM (inactive)	> 100 µM (inactive)	> 100 µM (inactive)	–	> 100 µM (inactive)	> 100 µM (inactive)	> 100 µM (inactive)	> 100 µM (inactive)
CC1=CC[C@@H](C(C)(C)O)C[C@@H]1O	> 5000 µM (inactive)	> 5000 µM (inactive)	> 5000 µM	> 5000 µM (inactive)	> 5000 µM (inactive)	> 5000 µM (inactive)	–	> 5000 µM (inactive)	> 5000 µM (inactive)	> 5000 µM (inactive)	> 5000 µM (inactive)	> 5000 µM (inactive)	> 5000 µM (inactive)	> 5000 µM (inactive)	> 5000 µM (inactive)	> 5000 µM (inactive)	–	> 5000 µM (inactive)	–	> 5000 µM (inactive)
CN(C)CCNC(=O)c1cccc2c(Nc3ccc(S(N)(=O)=O)cc3)c3ccccc3nc12	3.05 µM (inactive)	0.356 µM (active)	1.83 µM	3.1 µM (inactive)	0.509 µM (active)	0.531 µM (active)	–	0.0632 µM (active)	1.49 µM (inactive)	1.69 µM (inactive)	2.32 µM (inactive)	2.01 µM (inactive)	0.656 µM (active)	0.367 µM (active)	0.391 µM (active)	1.71 µM (inactive)	–	0.337 µM (active)	–	1.67 µM (inactive)
